Common to all, as to format: biochemical
Experiment [1] addresses T1, orotidine 5′-monophosphate decarboxylase (OMPDC) (Saccharomyces cerevisiae, UniProt P03962, S2H/C155S/A160S/N267D).
T1 sequence (P03962 2-267 S2H/C155S/A160S/N267D): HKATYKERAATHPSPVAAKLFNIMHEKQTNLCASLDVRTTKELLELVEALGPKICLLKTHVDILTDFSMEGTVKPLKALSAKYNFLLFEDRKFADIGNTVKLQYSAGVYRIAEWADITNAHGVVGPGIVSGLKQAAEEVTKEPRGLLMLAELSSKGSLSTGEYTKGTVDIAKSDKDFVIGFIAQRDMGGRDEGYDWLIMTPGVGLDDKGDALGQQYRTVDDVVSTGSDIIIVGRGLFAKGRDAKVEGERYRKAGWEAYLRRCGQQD

In experiment [2] the target is T1, orotidine 5′-monophosphate decarboxylase (OMPDC). The source holds these as a separate data set.
The target in experiment [3] is T2, orotidine 5′-monophosphate decarboxylase (OMPDC) (Saccharomyces cerevisiae, UniProt P03962, A160S/C155S/N267D/S2H).
T2 sequence (P03962 2-267 S2H/C155S/A160S/N267D): T1 sequence (P03962 2-267 S2H/C155S/A160S/N267D)
Description: activation of FEO decarboxylation by added phosphite, nonlinear fit to eq […].

As usually defined, the pKd is −log10 of the Kd, conventionally taken in molar units. Higher therefore signals a small Kd.

pKd: −log10 of the molar value.

Take `C[C@H]1O[C@@H](n2c(C(=O)O)c(F)c(=O)[nH]c2=O)[C@H](O)[C@@H]1O` [5′-dFO, 5′-Deoxy-5-fluoroorotidine]: the “HPLC initial-velocity decarboxylation assay, purified yeast OMPDC, with and with” value in experiment [1] was 0.078 M^−1 s^−1 (kcat/Km).

In the case of `O=C(O)c1c(F)c(=O)[nH]c(=O)n1[C@@H]1OC[C@@H](O)[C@H]1O` [FEO, 1-(β-D-Erythrofuranosyl)-5-fluoroorotic acid], the “spectrophotometric decarboxylation assay at 282 nm, purified yeast OMPDC, with a” value in experiment [2] is reported as 10 M^−1 s^−1 (kcat/Km).

Take `O=[PH](O)O` [HPO3^2−, phosphite dianion]: the pKd in experiment [3] is 1.00.

Values taken from paper PMC3556479 (Biochemistry, 2013).
